The values below come from ChEMBL document CHEMBL4680343, “Nosiheptide analogues as potential antibacterial agents via dehydroalanine region modifications: Semi-synthesis, antimicrobial activity and molecular docking study” (2021).

Common to all, as to type: functional
What all share (conditions): time 16-20 hrs

Assay [1] deals with Enterococcus faecium. Briefly: Antimicrobial activity against vancomycin-resistant Enterococcus faecium assessed as inhibition of microbial growth incubated for 16 to 20 hrs under ambient air condition by broth microdilution assay. (In general: In broth dilution the organism is exposed to a series of concentrations in liquid medium.)
Assay [2] has as its system Staphylococcus aureus. Briefly: Antimicrobial activity against methicillin-resistant Staphylococcus aureus assessed as inhibition of microbial growth incubated for 16 to 20 hrs under ambient air condition by broth microdilution assay.
The subject of assay [3] is Staphylococcus aureus. Put plainly: Antimicrobial activity against Staphylococcus aureus ATCC 25923 assessed as inhibition of microbial growth incubated for 16 to 20 hrs under ambient air condition by broth microdilution assay.

Where only a bound is given, the exact number is not on record here.

As a reminder, the MIC is the lowest concentration found to suppress growth. As for `C/C=C1\NC(=O)[C@H]([C@@H](C)O)NC(=O)c2csc(n2)-c2cc(O)c(-c3nc(C(=O)NC(CNc4ccccc4I)C(N)=O)cs3)nc2-c2csc(n2)[C@@H]2CSC(=O)c3[nH]c4cccc(c4c3C)COC(=O)[C@H](O)C[C@H](NC(=O)c3csc1n3)c1nc(cs1)C(=O)N2` (stereo partly drawn), the MIC in assay [1] came out at 0.015 µg/mL; in assay [2], 0.0078 µg/mL; in assay [3], 0.062 µg/mL.
The like results for `C/C=C1\NC(=O)[C@H]([C@@H](C)O)NC(=O)c2csc(n2)-c2cc(O)c(-c3nc(C(=O)NC(CNc4ccccc4C)C(N)=O)cs3)nc2-c2csc(n2)[C@@H]2CSC(=O)c3[nH]c4cccc(c4c3C)COC(=O)[C@H](O)C[C@H](NC(=O)c3csc1n3)c1nc(cs1)C(=O)N2` (stereo partly drawn) were, in that order, 0.015 µg/mL, less than 0.0039 µg/mL and 0.015 µg/mL.
Take `C/C=C1\NC(=O)[C@H]([C@@H](C)O)NC(=O)c2csc(n2)-c2cc(O)c(-c3nc(C(=O)NC(CNc4ccc(F)cc4)C(N)=O)cs3)nc2-c2csc(n2)[C@@H]2CSC(=O)c3[nH]c4cccc(c4c3C)COC(=O)[C@H](O)C[C@H](NC(=O)c3csc1n3)c1nc(cs1)C(=O)N2` (stereo partly drawn): the values for the minimal inhibitory concentration (MIC) in assay [1], in assay [2] and in assay [3] were 0.031 µg/mL, 0.015 µg/mL and 0.031 µg/mL, respectively.
Consider `C/C=C1\NC(=O)[C@H]([C@@H](C)O)NC(=O)c2csc(n2)-c2cc(O)c(-c3nc(C(=O)NC(CNc4cccc(C)c4)C(N)=O)cs3)nc2-c2csc(n2)[C@@H]2CSC(=O)c3[nH]c4cccc(c4c3C)COC(=O)[C@H](O)C[C@H](NC(=O)c3csc1n3)c1nc(cs1)C(=O)N2` (stereo partly drawn), for which the figures for the MIC in assay [1], in assay [2] and in assay [3] were 0.015 µg/mL, less than 0.0039 µg/mL and 0.031 µg/mL, respectively.
As for `C/C=C1\NC(=O)[C@H]([C@@H](C)O)NC(=O)c2csc(n2)-c2cc(O)c(-c3nc(C(=O)NC(CNc4ccc(Br)cc4)C(N)=O)cs3)nc2-c2csc(n2)[C@@H]2CSC(=O)c3[nH]c4cccc(c4c3C)COC(=O)[C@H](O)C[C@H](NC(=O)c3csc1n3)c1nc(cs1)C(=O)N2` (stereo partly drawn), the MIC was found to be 0.031 µg/mL in assay [1], 0.015 µg/mL in assay [2] and 0.062 µg/mL in assay [3].
Consider `C/C=C1\NC(=O)[C@H]([C@@H](C)O)NC(=O)c2csc(n2)-c2cc(O)c(-c3nc(C(=O)NC(CNc4cccc(F)c4)C(N)=O)cs3)nc2-c2csc(n2)[C@@H]2CSC(=O)c3[nH]c4cccc(c4c3C)COC(=O)[C@H](O)C[C@H](NC(=O)c3csc1n3)c1nc(cs1)C(=O)N2` (stereo partly drawn), for which the MIC was 0.031 µg/mL in assay [1], 0.015 µg/mL in assay [2] and 0.031 µg/mL in assay [3].
`C/C=C1\NC(=O)[C@H]([C@@H](C)O)NC(=O)c2csc(n2)-c2cc(O)c(-c3nc(C(=O)NC(CNc4cccc(I)c4)C(N)=O)cs3)nc2-c2csc(n2)[C@@H]2CSC(=O)c3[nH]c4cccc(c4c3C)COC(=O)[C@H](O)C[C@H](NC(=O)c3csc1n3)c1nc(cs1)C(=O)N2` (stereo partly drawn): the MIC in assay [1] is 0.0078 µg/mL; in assay [2], less than 0.0039 µg/mL; in assay [3] it was 0.031 µg/mL.
The like results for `C=C(NC(=O)c1csc(-c2nc3c(cc2O)-c2nc(cs2)C(=O)N[C@@H]([C@@H](C)O)C(=O)N/C(=C\C)c2nc(cs2)C(=O)N[C@H]2C[C@@H](O)C(=O)OCc4cccc5[nH]c(c(C)c45)C(=O)SC[C@H](NC(=O)c4csc2n4)c2nc-3cs2)n1)C(N)=O` were, in that order, 0.031 µg/mL, 0.0078 µg/mL and 0.062 µg/mL.
Regarding `C/C=C1\NC(=O)[C@H]([C@@H](C)O)NC(=O)c2csc(n2)-c2cc(O)c(-c3nc(C(=O)NC(CNc4cccc(C(F)(F)F)c4)C(N)=O)cs3)nc2-c2csc(n2)[C@@H]2CSC(=O)c3[nH]c4cccc(c4c3C)COC(=O)[C@H](O)C[C@H](NC(=O)c3csc1n3)c1nc(cs1)C(=O)N2` (stereo partly drawn), the MIC in assay [1] came to 0.031 µg/mL; in assay [2], 0.0078 µg/mL; in assay [3] it was 0.062 µg/mL.
The like results for `C/C=C1\NC(=O)[C@H]([C@@H](C)O)NC(=O)c2csc(n2)-c2cc(O)c(-c3nc(C(=O)NC(CNc4ccccc4Br)C(N)=O)cs3)nc2-c2csc(n2)[C@@H]2CSC(=O)c3[nH]c4cccc(c4c3C)COC(=O)[C@H](O)C[C@H](NC(=O)c3csc1n3)c1nc(cs1)C(=O)N2` (stereo partly drawn) were, in that order, 0.015 µg/mL, less than 0.0039 µg/mL and 0.015 µg/mL.
For `C/C=C1\NC(=O)[C@H]([C@@H](C)O)NC(=O)c2csc(n2)-c2cc(O)c(-c3nc(C(=O)NC(CNc4ccccc4F)C(N)=O)cs3)nc2-c2csc(n2)[C@@H]2CSC(=O)c3[nH]c4cccc(c4c3C)COC(=O)[C@H](O)C[C@H](NC(=O)c3csc1n3)c1nc(cs1)C(=O)N2` (stereo partly drawn), the figures for the MIC in assay [1], in assay [2] and in assay [3] were 0.015 µg/mL, less than 0.0039 µg/mL and 0.062 µg/mL, respectively.
In the same order, the values of `C/C=C1\NC(=O)[C@H]([C@@H](C)O)NC(=O)c2csc(n2)-c2cc(O)c(-c3nc(C(=O)NC(CNc4cccc(Br)c4)C(N)=O)cs3)nc2-c2csc(n2)[C@@H]2CSC(=O)c3[nH]c4cccc(c4c3C)COC(=O)[C@H](O)C[C@H](NC(=O)c3csc1n3)c1nc(cs1)C(=O)N2` (stereo partly drawn) are 0.031 µg/mL, 0.0078 µg/mL and 0.062 µg/mL.
Take `C/C=C1\NC(=O)[C@H]([C@@H](C)O)NC(=O)c2csc(n2)-c2cc(O)c(-c3nc(C(=O)NC(CNc4ccccc4C(F)(F)F)C(N)=O)cs3)nc2-c2csc(n2)[C@@H]2CSC(=O)c3[nH]c4cccc(c4c3C)COC(=O)[C@H](O)C[C@H](NC(=O)c3csc1n3)c1nc(cs1)C(=O)N2` (stereo partly drawn): the MIC was 0.015 µg/mL in assay [1], less than 0.0039 µg/mL in assay [2] and 0.031 µg/mL in assay [3].
In the case of `C/C=C1\NC(=O)[C@H]([C@@H](C)O)NC(=O)c2csc(n2)-c2cc(O)c(-c3nc(C(=O)NC(CNc4ccc(C(F)(F)F)cc4)C(N)=O)cs3)nc2-c2csc(n2)[C@@H]2CSC(=O)c3[nH]c4cccc(c4c3C)COC(=O)[C@H](O)C[C@H](NC(=O)c3csc1n3)c1nc(cs1)C(=O)N2` (stereo partly drawn), the MIC is 0.015 µg/mL in assay [1], less than 0.0039 µg/mL in assay [2] and 0.031 µg/mL in assay [3].
In the same order, the values of `C/C=C1\NC(=O)[C@H]([C@@H](C)O)NC(=O)c2csc(n2)-c2cc(O)c(-c3nc(C(=O)NC(CNc4ccc(I)cc4)C(N)=O)cs3)nc2-c2csc(n2)[C@@H]2CSC(=O)c3[nH]c4cccc(c4c3C)COC(=O)[C@H](O)C[C@H](NC(=O)c3csc1n3)c1nc(cs1)C(=O)N2` (stereo partly drawn) are 0.015 µg/mL, less than 0.0039 µg/mL and 0.062 µg/mL.
The like results for `C/C=C1\NC(=O)[C@H]([C@@H](C)O)NC(=O)c2csc(n2)-c2cc(O)c(-c3nc(C(=O)NC(CNc4ccc(C)cc4)C(N)=O)cs3)nc2-c2csc(n2)[C@@H]2CSC(=O)c3[nH]c4cccc(c4c3C)COC(=O)[C@H](O)C[C@H](NC(=O)c3csc1n3)c1nc(cs1)C(=O)N2` (stereo partly drawn) were, in that order, 0.031 µg/mL, 0.0078 µg/mL and 0.062 µg/mL.
